Test results taken from ChEMBL document CHEMBL1156250, “Novel three-component domino reactions of ketones, isatin and amino acids: synthesis and discovery of antimycobacterial activity of highly functionalised novel dispiropyrrolidines” (2010).
Converted amounts (≈) assume the structure as drawn.

Tested on: Mycobacterium tuberculosis
Experiment: Ratio of compound MIC over ethambutol MIC for Mycobacterium tuberculosis H37Rv
Assay type: functional

Row | Compound | Ratio
1 | CN1CCC2(CN(N=O)CCC2=O)C12C(=O)Nc1ccc(Br)cc12 (stereo not drawn) | 3.86

Tested on: Mycobacterium tuberculosis
Experiment: Antimycobacterial activity against Mycobacterium tuberculosis H37Rv by agar dilution method
Assay type: functional

Row | Compound | MIC [µM]
2 | O=C1Nc2ccc(Cl)cc2C12C1CCCN1C1(C(=O)Nc3ccc(Cl)cc31)C1CCCN12 (stereo not drawn) | 26.6 (≈ 12.5 µg/mL)
3 | O=C1Nc2ccccc2C12NC(c1ccccc1)C(c1ccccc1)C21CCCCC1=O (stereo not drawn) | 118 (≈ 50 µg/mL)
4 | CC(C)c1cccc2c1NC(=O)C21N(C)CCC12CN(C)CCC2=O (stereo not drawn) | 36.6 (≈ 12.5 µg/mL)
5 | Cc1ccc2c(c1)C1(NC(c3ccccc3)C(c3ccccc3)C13CCCCC3=O)C(=O)N2 (stereo not drawn) | 115 (≈ 50 µg/mL)
6 | Cc1ccc2c(c1)C1(C(=O)N2)N(C)CCC12CN(N=O)CCC2=O (stereo not drawn) | 4.75 (≈ 1.56 µg/mL)
7 | CN1CCC2(CN(N=O)CCC2=O)C12C(=O)Nc1ccc(Cl)cc12 (stereo not drawn) | 4.47 (≈ 1.56 µg/mL)
8 | CC(C)c1cccc2c1NC(=O)C21N(C)CCC12CCCC2=O (stereo not drawn) | 160 (≈ 50 µg/mL)
9 | NC(=O)c1cnccn1 [PYRAZINAMIDE] | 50.8 (≈ 6.25 µg/mL)
10 | O=C1Nc2ccc(Br)cc2C12NC(c1ccccc1)C(c1ccccc1)C21CN(c2ccccc2)CCC1=O (stereo not drawn) | 10.6 (≈ 6.1 µg/mL)
11 | CC(C)c1cccc2c1NC(=O)C21NC(c2ccccc2)C(c2ccccc2)C12CN(C)CCC2=O (stereo not drawn) | 26.1 (≈ 12.5 µg/mL)
12 | Cc1ccc2c(c1)C1(C(=O)N2)N(C)CCC12CCCCCC2=O (stereo not drawn) | 40 (≈ 12.5 µg/mL)
13 | O=C1Nc2ccccc2C12NC(c1ccccc1)C(c1ccccc1)C21CCCC1=O (stereo not drawn) | 61.2 (≈ 25 µg/mL)
14 | Cc1ccc2c(c1)C1(C(=O)N2)N(C)CCC12CCCCC2=O (stereo not drawn) | 41.9 (≈ 12.5 µg/mL)
15 | CN1CCC2(CCCCC2=O)C12C(=O)Nc1ccc(Cl)cc12 (stereo not drawn) | 39.2 (≈ 12.5 µg/mL)
16 | CC(C)c1cccc2c1NC(=O)C21NC(c2ccccc2)C(c2ccccc2)C12CCCC2=O (stereo not drawn) | 27.7 (≈ 12.5 µg/mL)
17 | CN1CCC(=O)C2(CCN(C)C23C(=O)Nc2ccc(Cl)cc23)C1 (stereo not drawn) | 37.5 (≈ 12.5 µg/mL)
18 | O=C1Nc2ccccc2C12C1CCCN1C1(C(=O)Nc3ccccc31)C1CCCN12 (stereo not drawn) | 125 (≈ 50 µg/mL)
19 | O=C1Nc2ccc(Cl)cc2C12NC(c1ccccc1)C(c1ccccc1)C21CN(c2ccccc2)CCC1=O (stereo not drawn) | 22.8 (≈ 12.2 µg/mL)
20 | NNC(=O)c1ccncc1 [ISONIAZID] | 0.36 (≈ 0.0494 µg/mL)
21 | CN1CCC2(CCCC2=O)C12C(=O)Nc1ccc(Cl)cc12 (stereo not drawn) | 41 (≈ 12.5 µg/mL)
22 | Cc1ccc2c(c1)C1(NC(c3ccccc3)C(c3ccccc3)C13CN(c1ccccc1)CCC3=O)C(=O)N2 (stereo not drawn) | 23.7 (≈ 12.2 µg/mL)

Row | Compound | MIC [µM]
23 | CC(C)c1cccc2c1NC(=O)C21NC(c2ccccc2)C(c2ccccc2)C12CN(c1ccccc1)CCC2=O (stereo not drawn) | 22.5 (≈ 12.2 µg/mL)
24 | CN1CCC2(CCCCC2=O)C12C(=O)Nc1ccc(Br)cc12 (stereo not drawn) | 4.29 (≈ 1.56 µg/mL)
25 | CN1CCC2(CCCC2=O)C12C(=O)Nc1ccc(Br)cc12 (stereo not drawn) | 8.96 (≈ 3.13 µg/mL)
26 | CN1CCC2(CN(N=O)CCC2=O)C12C(=O)Nc1ccc(Br)cc12 (stereo not drawn) | 1.98 (≈ 0.779 µg/mL)
27 | O=C1Nc2ccc(Cl)cc2C12NC(c1ccccc1)C(c1ccccc1)C21CCCCC1=O (stereo not drawn) | 13.7 (≈ 6.25 µg/mL)
28 | CN1CCC2(CCCCCC2=O)C12C(=O)Nc1ccc(Cl)cc12 (stereo not drawn) | 18.8 (≈ 6.25 µg/mL)
29 | CN1CCC2(CCCCCC2=O)C12C(=O)Nc1ccc(Br)cc12 (stereo not drawn) | 4.13 (≈ 1.56 µg/mL)
30 | Cc1ccc2c(c1)C1(C(=O)N2)C2CCCN2C2(C(=O)Nc3ccc(C)cc32)C2CCCN21 (stereo not drawn) | 29.2 (≈ 12.5 µg/mL)
31 | O=C1Nc2ccc(Br)cc2C12C1CCCN1C1(C(=O)Nc3ccc(Br)cc31)C1CCCN12 (stereo not drawn) | 5.61 (≈ 3.13 µg/mL)
32 | CC(C)c1cccc2c1NC(=O)C21NC(c2ccccc2)C(c2ccccc2)C12CCCCC2=O (stereo not drawn) | 13.4 (≈ 6.25 µg/mL)
33 | CC(C)c1cccc2c1NC(=O)C21N(C)CCC12CCCCC2=O (stereo not drawn) | 38.3 (≈ 12.5 µg/mL)
34 | Cc1ccc2c(c1)C1(C(=O)N2)N(C)CCC12CN(C)CCC2=O (stereo not drawn) | 19.9 (≈ 6.25 µg/mL)
35 | CN1CCC(=O)C2(C1)C(c1ccccc1)C(c1ccccc1)NC21C(=O)Nc2ccc(Cl)cc21 (stereo not drawn) | 26.5 (≈ 12.5 µg/mL)
36 | CN1CCC(=O)C2(C1)C(c1ccccc1)C(c1ccccc1)NC21C(=O)Nc2ccc(Br)cc21 (stereo not drawn) | 6.06 (≈ 3.13 µg/mL)
37 | CC(C)c1cccc2c1NC(=O)C21N(C)CCC12CN(N=O)CCC2=O (stereo not drawn) | 8.78 (≈ 3.13 µg/mL)
38 | CN1CCC(=O)C2(CCN(C)C23C(=O)Nc2ccc(Br)cc23)C1 (stereo not drawn) | 33 (≈ 12.5 µg/mL)
39 | CC(C)c1cccc2c1NC(=O)C21N(C)CCC12CCCCCC2=O (stereo not drawn) | 73.4 (≈ 25 µg/mL)
40 | CC[C@@H](CO)NCCN[C@@H](CC)CO [ETHAMBUTOL] | 7.64 (≈ 1.56 µg/mL)
41 | Cc1ccc2c(c1)C1(NC(c3ccccc3)C(c3ccccc3)C13CN(C)CCC3=O)C(=O)N2 (stereo not drawn) | 55.4 (≈ 25 µg/mL)
42 | O=C1Nc2ccc(Br)cc2C12NC(c1ccccc1)C(c1ccccc1)C21CCCCC1=O (stereo not drawn) | 6.24 (≈ 3.13 µg/mL)

Tested on: Mycobacterium tuberculosis
Experiment: Ratio of compound MIC over pyrazinamide MIC for Mycobacterium tuberculosis H37Rv
Assay type: functional

Row | Compound | Ratio
43 | CN1CCC2(CN(N=O)CCC2=O)C12C(=O)Nc1ccc(Br)cc12 (stereo not drawn) | 25.64
